Measurements: ChEMBL document CHEMBL1671732, “No evidence for induction of ABC transporters in peripheral blood mononuclear cells in humans after 14 days of efavirenz treatment” (Antimicrob Agents Chemother, 2010)

Tests used:
[1] = Half life in healthy human plasma at 400 mg, po measured on day 1 post dose by liquid chromatography-tandem mass spectrometry; format: ADME, organism-based
[2] = Drug concentration in PBMCs of healthy human at 400 mg, po measured after 24 hrs on day 1 post dose by liquid chromatography-tandem mass spectrometry; format: ADME, organism-based, PBMC; settings: read-out: Drug uptake
[3] = Drug concentration in PBMCs of healthy human at 400 mg, po ad for 14 days measured after 24 hrs post last dose by liquid chromatography-tandem mass spectrometry; format: ADME, organism-based, PBMC; settings: read-out: Drug uptake
[4] = Ratio of drug concentration in PBMCs to plasma of healthy human administered at 400 mg, po measured after 24 hrs on day 1 post dose; format: ADME, organism-based, PBMC
Plasma [5] = assay: Fraction unbound in healthy human plasma at 400 mg, po measured on day 1 post dose by liquid chromatography-tandem mass spectrometry; format: ADME, organism-based; settings: in vivo
Homo sapiens [6] = assay: Effect on P-gp activity in PBMCs isolated from healthy human receiving compound dose at 400 mg, po qd for 14 days by rhodamine -123 efflux assay; format: ADME, organism-based; settings: in vivo, 336 h
[7] = Cmax in healthy human plasma at 400 mg, po measured on day 1 post dose by liquid chromatography-tandem mass spectrometry; format: ADME, organism-based; design: dose 400 mg, route oral
[8] = Tmax in healthy human plasma at 400 mg, po qd for 14 days by liquid chromatography-tandem mass spectrometry; format: ADME, organism-based
Plasma [9] = assay: Fraction unbound in healthy human plasma at 400 mg, po qd for 14 days by liquid chromatography-tandem mass spectrometry; format: ADME, organism-based; settings: in vivo, 336 h
Homo sapiens [10] = assay: Reduction in ABCC1 mRNA expression in healthy human at 400 mg, po qd for 14 days by RT-PCR; format: ADME, organism-based; settings: in vivo, 336 h
Homo sapiens [11] = assay: Volume of distribution in healthy human plasma at 400 mg, po measured on day 1 post dose by liquid chromatography-tandem mass spectrometry; format: ADME, organism-based; settings: in vivo
[12] = Ratio of drug concentration in PBMCs to plasma of healthy human administered at 400 mg, po qd for 14 days measured after 24 hrs post last dose; format: ADME, organism-based, PBMC
[13] = Cmax in healthy human plasma at 400 mg, po qd for 14 days by liquid chromatography-tandem mass spectrometry; format: ADME, organism-based; design: dose 400 mg, route oral
[14] = Apparent oral clearance in healthy human plasma at 400 mg, po measured on day 1 post dose by liquid chromatography-tandem mass spectrometry; format: ADME, organism-based
[15] = Ratio of drug concentration in PBMCs to plasma of healthy human administered at 400 mg, po qd for 14 days measured after 5 hrs post last dose; format: ADME, organism-based, PBMC
[16] = Ratio of drug concentration in PBMCs to plasma of healthy human administered at 400 mg, po measured after 5 hrs on day 1 post dose; format: ADME, organism-based, PBMC
[17] = Drug concentration in PBMCs of healthy human at 400 mg, po ad for 14 days measured after 5 hrs post last dose by liquid chromatography-tandem mass spectrometry; format: ADME, organism-based, PBMC; settings: read-out: Drug uptake
[18] = Drug concentration in PBMCs of healthy human at 400 mg, po measured after 5 hrs on day 1 post dose by liquid chromatography-tandem mass spectrometry; format: ADME, organism-based, PBMC; settings: read-out: Drug uptake
[19] = Half life in healthy human plasma at 400 mg, po qd for 14 days by liquid chromatography-tandem mass spectrometry; format: ADME, organism-based
Homo sapiens [20] = assay: Reduction in ABCB1 mRNA expression in healthy human at 400 mg, po qd for 14 days by RT-PCR; format: ADME, organism-based; settings: in vivo, 336 h
Homo sapiens [21] = assay: Reduction in ABCC2 mRNA expression in healthy human at 400 mg, po qd for 14 days by RT-PCR; format: ADME, organism-based; settings: in vivo, 336 h
Homo sapiens [22] = assay: Volume of distribution in healthy human plasma at 400 mg, po qd for 14 days by liquid chromatography-tandem mass spectrometry; format: ADME, organism-based; settings: in vivo, 336 h
[23] = Tmax in healthy human plasma at 400 mg, po measured on day 1 post dose by liquid chromatography-tandem mass spectrometry; format: ADME, organism-based
[24] = Apparent oral clearance in healthy human plasma at 400 mg, po qd for 14 days by liquid chromatography-tandem mass spectrometry; format: ADME, organism-based

With `O=C1Nc2ccc(Cl)cc2[C@@](C#CC2CC2)(C(F)(F)F)O1` [EFAVIRENZ] the half-life [1] was 78.7 h, the concentration at 24 h [2] was 974 ng/mL and the concentration at 24 h [3] was 2030 ng/mL. For the same compound, the Kp at 24 h [4] was 1.53, the Fu (Plasma [5]) was 0.47% and the Activity (Homo sapiens [6]) was “Non-toxic”. It also gave a Cmax [7] of 2740 ng/mL, a Tmax [8] of 2.2 h and a Fu (Plasma [9]) of 0.52%. For the same compound, the Activity (Homo sapiens [10]) was “Non-toxic”, the Vd (Homo sapiens [11]) was 462.8 L and the Kp at 24 h [12] was 1.36. The Cmax [13] was 3760 ng/mL, the CL/F [14] was 70.7 mL/min and the Kp at 5 h [15] was 1.76. For the same compound, the Kp at 5 h [16] was 1.63, the concentration at 5 h [17] was 3600 ng/mL and the concentration at 5 h [18] was 1470 ng/mL. The half-life [19] was 33 h, the Activity (Homo sapiens [20]) was “Non-toxic” and the Activity (Homo sapiens [21]) was “Non-toxic”. The Vd (Homo sapiens [22]) was 401.6 L, the Tmax [23] was 2.3 h and the CL/F [24] was 148 mL/min.
